# Test results published in US20080255175A1, “Anti-cancer agents, compositions and methods of treating cancers” (priority 2007, published 2008).
# Experiments:
# HT-29, Human Colorectal = assay: Cell proliferation 96-welled in vitro MTT assay, HT-29; type: cell-based; conditions: 72 hr incubation, triplicate
# Method: (§1) In vitro Efficacy: The Compounds were tested in a Cell Proliferation 96-welled in vitro MTT assay
# (§2) The tests were done in triplicate and the test samples included negative control, positive control and ACB compounds at several concentrations (10^−4 to 10^−8) in 0.4% DMSO/DW medium. The incubation time was 72 hr and the IC50 was calculated from the generated inhibition curves.
# [1] = tested on: NCI-H460 human non-small cell lung cancer; assay: NCI-H460 human non-small cell lung cancer nude mice xenograft model; type: in vivo, BALB/c nude mice; conditions: for Tumor Weight / Tumor Inhibitory Growth Weight: after four weeks; for Tumor Weight: twice every week, model 3.08 ± 0.88; for effect on nude mice xenograft NCI-H460 human non-small cell lung cancer growth (in words): mouse, in vivo; for dose dependence of anticancer effect (in words): two dosages per compound
# Excerpt: In this study the NCI-H460 human non-small cell lung cancer nude mice xenograft model was established and applied for in vivo anti-cancer activity evaluation of three compounds of the invention.
# (§3) BALB/c nude mice, were provided by Shanghai SLAC Experimental Animal Co., Ltd. (Experimental animal production license:SCXK (Shanghai) 2003-0003; Experimental animal application license:SYXK (Jiangsu) 2002-0053). The ages of the mice was 35-40 days; their body weight was 18-22 g; half of the mice were female and the other half were male. Eight nude mice were used per group.
# NCI-H460 human non-small cell lung cancer nude mice xenograft model was established by s.c. injection of 1×10^6 NCI-H460 cells into nude mice axilla. After formation of tumor the xenograft was passaged for three generations in nude mice.
# (§4) The tumor growing in Log phase was isolated from nude mice and sliced into 1.5 mm^3 particles. Under SPF conditions, the tumor particles were inoculated s.c. of nude mice right axilla. The xenografted tumor was measured the length and width by vernier caliper. Nude mice were randomly divided into eight groups when the bearing tumor reached 100-300mm^3 volume. Tumor length and width were measured twice every week to dynamic evaluate the anticancer activity of the tested compounds. Compound 1 was given by i.p. twice every week, compound 2 was given by i.v. twice every week, compound 3 was given by i.v. twice every week, control Topotecan was given by i.v. twice every week. In model group saline was give i.v. twice every week. After four weeks drug administration, nude mice were sacrificed and tumor was isolated by surgery for weight detection.
# Tumor volume (TV) was calculated by the following formula: TV=1/2×a×b2 a and b represent length and width, respectively.
# MCF-7, Human Breast = assay: Cell proliferation 96-welled in vitro MTT assay, MCF-7; type: cell-based; conditions: MCF7, 72 hr incubation, triplicate
# Method: as §1, §2
# [2] = Body weight of nude mice in the NCI-H460 xenograft study; type: in vivo, BALB/c nude mice; conditions: after four weeks, twice every week, model 22.07 ± 1.68
# Excerpt: as §3, §4
# P388, Mouse Lymphoma = assay: Cell proliferation 96-welled in vitro MTT assay, P388; type: cell-based; conditions: 72 hr incubation, triplicate
# Method: as §1, §2
# Lewis Lung, mouse lung = assay: Cell proliferation 96-welled in vitro MTT assay, Lewis Lung; type: cell-based; conditions: Lewis lung carcinoma, 72 hr incubation, triplicate
# Method: as §1, §2
# [3] = 0.5 week, Dosage 1: topotecan 2, Compound 1 0.625, Compound 2 5, Compound 3 1.5625 mg/kg, X ± SD, n = 8
# [4] = 0.5 week, Dosage 2: Compound 1 0.3125, Compound 2 2.5, Compound 3 0.78125 mg/kg, X ± SD, n = 8
# [5] = 1 week, Dosage 1: topotecan 2, Compound 1 0.625, Compound 2 5, Compound 3 1.5625 mg/kg
# [6] = 1 week, Dosage 2: Compound 1 0.3125, Compound 2 2.5, Compound 3 0.78125 mg/kg
# [7] = 1.5 weeks, Dosage 1: topotecan 2, Compound 1 0.625, Compound 2 5, Compound 3 1.5625 mg/kg
# [8] = 1.5 weeks, Dosage 2: Compound 1 0.3125, Compound 2 2.5, Compound 3 0.78125 mg/kg
# [9] = 2 weeks, Dosage 1: topotecan 2, Compound 1 0.625, Compound 2 5, Compound 3 1.5625 mg/kg
# [10] = 2 weeks, Dosage 2: Compound 1 0.3125, Compound 2 2.5, Compound 3 0.78125 mg/kg
# [11] = 2.5 weeks, Dosage 1: topotecan 2, Compound 1 0.625, Compound 2 5, Compound 3 1.5625 mg/kg
# [12] = 2.5 weeks, Dosage 2: Compound 1 0.3125, Compound 2 2.5, Compound 3 0.78125 mg/kg
# [13] = 3 weeks, Dosage 1: topotecan 2, Compound 1 0.625, Compound 2 5, Compound 3 1.5625 mg/kg
# [14] = 3 weeks, Dosage 2: Compound 1 0.3125, Compound 2 2.5, Compound 3 0.78125 mg/kg
# [15] = 3.5 weeks, Dosage 1: topotecan 2, Compound 1 0.625, Compound 2 5, Compound 3 1.5625 mg/kg
# [16] = 3.5 weeks, Dosage 2: Compound 1 0.3125, Compound 2 2.5, Compound 3 0.78125 mg/kg
# [17] = 4 weeks, Dosage 1: topotecan 2, Compound 1 0.625, Compound 2 5, Compound 3 1.5625 mg/kg
# [18] = 4 weeks, Dosage 2: Compound 1 0.3125, Compound 2 2.5, Compound 3 0.78125 mg/kg
# [19] = Dosage 1: topotecan 2 i.v., Compound 1 0.625 i.p., Compound 2 5 i.v., Compound 3 1.5625 i.v. (mg/kg)
# [20] = Dosage 2: Compound 1 0.3125 i.p., Compound 2 2.5 i.v., Compound 3 0.78125 i.v. (mg/kg)
# [21] = higher dosage: compound 3 1.5625 mg/kg i.v., compound 2 5 mg/kg i.v., compound 1 0.625 mg/kg i.p., topotecan 2 mg/kg i.v.
# [22] = lower dosage: compound 3 0.78125 mg/kg i.v., compound 2 2.5 mg/kg i.v., compound 1 0.3125 mg/kg i.p.
Compound,"IC50 (HT-29, Human Colorectal) [µM]","Tumor Volume [1, 3] [mm3]","Tumor Volume [1, 4] [mm3]","Tumor Volume [1, 5] [mm3]","Tumor Volume [1, 6] [mm3]","Tumor Volume [1, 7] [mm3]","Tumor Volume [1, 8] [mm3]","Tumor Volume [1, 9] [mm3]","Tumor Volume [1, 10] [mm3]","Tumor Volume [1, 11] [mm3]","Tumor Volume [1, 13] [mm3]","Tumor Volume [1, 15] [mm3]","Tumor Volume [1, 17] [mm3]","Tumor Weight [1, 19] [g]","Tumor Inhibitory Growth Weight [1, 19]","inhibitory rate [1, 21] [%]","IC50 (MCF-7, Human Breast) [µM]","Ending Body Weight [2, 19] [g]","IC50 (P388, Mouse Lymphoma) [µM]","IC50 (Lewis Lung, mouse lung) [µM]",other results
CCC1(OC(=O)CNC(=O)/C=C\C(=O)O)C(=O)OCc2c1cc1n(c2=O)Cc2cc3ccccc3nc2-1 (stereo not shown) [Compound 1],44.3,220.9,194.9,504.2,560.8,706.7 ± 450.3,766.0 ± 480.3,1104.7 ± 759.6,1245.7 ± 585.6,1367.1 ± 880.2,1566.7 ± 867.8,1798.2 ± 767.2,2088.1,1.77 ± 0.73,42.5,42.5,20.4,18.86 ± 1.60,10.9,6.34,"Tumor Volume [1, 12]: 1459.9 ± 793.3 mm3; Tumor Volume [1, 14]: 1638.9 ± 827.1 mm3; Tumor Volume [1, 16]: 1909.7 ± 464.4 mm3; Tumor Volume [1, 18]: 2209.8 mm3; Tumor Weight [1, 20]: 1.85 ± 0.75 g; Tumor Inhibitory Growth Weight [1, 20]: 39.9; inhibitory rate [1, 22]: 39.9%; effect on nude mice xenograft NCI-H460 human non-small cell lung cancer growth (in words) [1]: could inhibit; dose dependence of anticancer effect (in words) [1]: dose-dependent anticancer effect; Ending Body Weight [2, 20]: 18.59 ± 1.46 g"
CCCS(=O)(=O)Oc1ccc2nc3c(cc2c1CN(C)C)Cn1c-3cc2c(c1=O)COC(=O)C2(CC)OC(=O)CNC(=O)/C=C\C(=O)O (stereo not shown) [Compound 2],50.8,205.2,182.6,413.8,472.2,602.1 ± 339.3,706.8 ± 360.0,733.7 ± 497.0,861.1 ± 523.9,950.0 ± 578.0,1147.2 ± 598.0,1632.9 ± 752.6,1639.4,1.55 ± 0.51,49.7,49.7,30.8,18.93 ± 1.49,10.6,12.8,"Tumor Volume [1, 12]: 1084.9 ± 536.3 mm3; Tumor Volume [1, 14]: 1269.1 ± 644.1 mm3; Tumor Volume [1, 16]: 1841.8 ± 859.5 mm3; Tumor Volume [1, 18]: 2029.4 mm3; Tumor Weight [1, 20]: 1.75 ± 0.90 g; Tumor Inhibitory Growth Weight [1, 20]: 43.2; inhibitory rate [1, 22]: 43.2%; effect on nude mice xenograft NCI-H460 human non-small cell lung cancer growth (in words) [1]: could inhibit; dose dependence of anticancer effect (in words) [1]: dose-dependent anticancer effect; Ending Body Weight [2, 20]: 17.82 ± 1.06 g"
CC[C@@]1(OC(=O)CNC(=O)/C=C\C(=O)O)C(=O)OCc2c1cc1n(c2=O)Cc2cc3c(CN(C)C)c(OS(=O)(=O)C(C)C)ccc3nc2-1 [Compound 3],14.3,237.9,211.8,392.9,455.2,547.2 ± 390.0,624.6 ± 371.5,719.6 ± 315.8,795.4 ± 389.0,958.4 ± 486.2,1093.2 ± 692.2,1400.4 ± 670.6,1588.3,1.36 ± 0.50,55.8,55.8,9.79,19.63 ± 0.77,0.0847,0.929,"Tumor Volume [1, 12]: 999.8 ± 562.9 mm3; Tumor Volume [1, 14]: 1291.5 ± 564.4 mm3; Tumor Volume [1, 16]: 1553.2 ± 706.3 mm3; Tumor Volume [1, 18]: 1908.5 mm3; Tumor Weight [1, 20]: 1.65 ± 0.86 g; Tumor Inhibitory Growth Weight [1, 20]: 46.4; inhibitory rate [1, 22]: 46.4%; effect on nude mice xenograft NCI-H460 human non-small cell lung cancer growth (in words) [1]: could inhibit; dose dependence of anticancer effect (in words) [1]: dose-dependent anticancer effect; Ending Body Weight [2, 20]: 18.42 ± 1.04 g"
"CC[C@@]1(O)C(=O)OCc2c1cc1n(c2=O)Cc2cc3c(CN(C)C)c(O)ccc3nc2-1 [topotecan, Topotecan, reference compound]",22.9,209.6,,574.0,,759.8 ± 419.9,,933.1 ± 496.8,,1220.7 ± 611.4,1273.3 ± 685.1,1413.0 ± 717.0,1639.9,1.58 ± 0.74,48.7,48.7,22.2,17.32 ± 1.18,18.5,11,
